In a melting point compilation (Tetko et al.; mined from patent text by program, amines drawn as free bases though some values may be those of a salt):

First: Cc1ccc(S(=O)C(C(=O)OC(C)(C)C)C(O)c2ccc(Oc3ccccc3)cc2)cc1 (stereo not drawn)
Second: Cc1ccc(-c2cccc(/C=C/C(=O)Nc3ccc(-c4ccccn4)cc3)c2)cc1
The melting point of the first is lower: 126 to 128 °C for the first, 220 to 222 °C for the second.

First: CC(C)n1nc(-c2cc(C(N)=O)c(N)nc2-c2ccccc2)ccc1=O
Second: O=C(O)CC1=C(c2ccccc2)c2ccccc2OC1
The melting point of the first is higher: > 250 °C for the first, 147 to 149 °C for the second.

Compared with `CCc1cn([C@H]2C[C@H](OC(C)=O)[C@@H](/C=C/C(=O)Cc3c(Cl)cccc3Cl)O2)c(=O)[nH]c1=O`, `CC(C)CN1C(=O)[C@H](CC(=O)O)O[C@@H](c2ccccc2Cl)c2cc(Cl)ccc21` is higher in melting point: 165 °C for the first, 183 to 186 °C for the second.

First: CCN(CC)c1ccc(C2OC(=O)c3cc(N(C)C)ccc32)cc1 (stereo not drawn)
Second: CCN(CC)c1cc(=O)c2c(o1)c(OC)cc1ccccc12
The melting point of the first is higher: 165 to 166 °C for the first, 150 to 151 °C for the second.

First: CSc1ccc(C=C2CCc3cc(OCCn4ccnc4)ccc3C2=O)s1
Second: COC(=O)CCCOc1ccc2c(c1OC)N=C(C=C(O)c1cccnc1)N1CCN=C21
The melting point of the first is lower: 102 to 104 °C for the first, 199 to 200 °C for the second.

First: COCc1nc(NC(=O)NS(=O)(=O)c2ccccc2C(=O)OC)nc(SC)n1
Second: Cc1ccccc1S(=O)(=O)NC(=O)n1sc(Cl)cc1=O
The melting point of the first is higher: 147 to 149 °C for the first, 82 to 84 °C for the second.

First: COC(=O)c1ccc(/C=C/c2nc(-c3ccc4ccccc4c3)oc2C)cc1
Second: CCOC(=O)C(=Cc1ccc(-c2nc3ccc(O)cc3o2)cc1)C(=O)OCC
The melting point of the first is higher: 216 to 217 °C for the first, 153 to 155 °C for the second.

Compared with `O=C(NCc1ccccn1)Nc1cc(N2CC(Cc3ccccc3)CC2=O)ccn1` (stereo not drawn), `O=C(CC(O)c1ccccc1)NCc1ccccc1[N+](=O)[O-]` (stereo not drawn) is lower in melting point: 215 to 220 °C for the first, 145 °C for the second.

First: Nc1ccccc1Oc1ncc(C(F)(F)F)cc1Cl
Second: CC(C)(C)OC(=O)N[C@@H](COc1ccccc1N)C(=O)O
The melting point of the first is higher: 133 to 135 °C for the first, 90 to 91 °C for the second.

First: COCCOCc1c(CN(C)CC(O)c2c[nH]c3ccccc23)sc2c(=O)c(C(=O)NCc3ccc(Cl)cc3)cn(C)c12 (stereo not drawn)
Second: CCOC(=O)C1=C(CCN2C(=O)c3ccccc3C2=O)NC(CCN2C(=O)c3ccccc3C2=O)=C(C(=O)OCC)C1c1ccccc1Cl
The melting point of the first is lower: 167 to 169 °C for the first, 170 °C for the second.

Going from `Cc1cccc(SCn2cc(F)cnc2=O)c1` to `Cc1nc(=O)n(COc2ccccc2)c(C)c1Br`, the melting point falls from 124 °C to 120 °C.

Compared with `O=c1c2ccccc2nc(-c2cc(-c3ccc(Cl)cc3)c(N3CCOCC3)s2)n1-c1ccccc1Cl`, `Cc1cnc(COc2nn3c(-c4ccccc4)nnc3cc2-c2ccccc2)s1` is lower in melting point: 215 to 217 °C for the first, 182 °C for the second.

First: CN(C)CCC(c1ccc(NC=O)cc1)c1ncc[nH]1 (stereo not drawn)
Second: COc1ccc(Cc2ccc(NC3=NCCN3)cc2OC)cc1
The melting point of the first is higher: 142 to 144 °C for the first, 127 to 128 °C for the second.

First: O=C(c1cc(C(F)(F)F)nc2c(Cl)cc(Cl)cc12)c1cc(C(F)(F)F)nc2c(Cl)cc(Cl)cc12
Second: CC(C)NC(=O)n1cc(Cl)c(-c2cc(Cl)cc(Cl)c2)n1
The melting point of the first is higher: 193 to 194 °C for the first, 127 °C for the second.

First: O=c1occ(CSc2ccc([N+](=O)[O-])cc2)o1
Second: O=[N+]([O-])c1cccnc1Nc1ccc2c(c1)OCO2
The melting point of the first is lower: 109 to 112 °C for the first, 146 to 148 °C for the second.

First: Cn1cc(-c2cccc(N3Cc4cc(C(C)(C)C)ccc4C3=O)c2CO)nc(Nc2cnn(C3CC3)c2)c1=O
Second: CC(C)NCc1nc(-c2ncn3c2CN(C)C(=O)c2ccccc2-3)no1
The melting point of the first is higher: 218 to 219 °C for the first, 142 to 144 °C for the second.

First: CCCCCCCCCCCc1nnc2n1-c1sc(CC)cc1C(c1ccc(OC)cc1)OC2 (stereo not drawn)
Second: NCCCCCCc1ccc(C2=NNC(=O)CC2)cc1
The melting point of the first is lower: 91 to 93 °C for the first, 153 to 154 °C for the second.

First: CCCCCCSc1nnc(N)s1
Second: CCCN(CCC)c1nc(C#N)c(C#N)nc1CC
The melting point of the first is higher: 113 to 115 °C for the first, 58 to 60 °C for the second.

Compared with `COc1ccnc(CCc2nc3cc(-c4ccc(S(=O)(=O)N5CCCN(C)CC5)cc4)cnc3[nH]2)c1`, `CN1CCc2c(c3ccc(-n4ccc(-c5ccc(C(F)(F)F)nc5)cc4=O)cc3n2C)C1` is higher in melting point: 160 to 162 °C for the first, 295 to 300 °C for the second.

First: CCOCc1nc2c(N)nc3cccnc3c2n1CCCCS(=O)(=O)NC
Second: Nc1nc(CCCO)nc2c1ncn2C1OC(CO)C(O)C1S (stereo not drawn)
The melting point of the first is higher: 148 to 150 °C for the first, 117 to 119 °C for the second.

First: COc1ccc(CONS(C)(=O)=O)cc1
Second: Cc1cccc(C)c1N(C(C)CCl)S(C)(=O)=O (stereo not drawn)
The melting point of the first is lower: 114 to 116 °C for the first, 126 to 128 °C for the second.

First: CC(Br)c1ncnc(Sc2ccc(Cl)cc2)c1F (stereo not drawn)
Second: CC(C)c1cccc(-c2c(Cl)ccc3c2C=C(C(=O)O)C(C(F)(F)F)O3)c1 (stereo not drawn)
The melting point of the first is lower: 86.2 to 87.5 °C for the first, 184 to 186 °C for the second.

First: CC12CCC(CN([Si](C)(C)C)S(=O)(=O)C1)C2(C)C (single isomer, unassigned; (-))
Second: CC(=O)OC1CCC2(C)C(CCC3C4CC(C)=C(C(C)=O)C4(C)CC(=O)C32)C1 (stereo not drawn)
The melting point of the first is lower: 63 to 73 °C for the first, 200 to 208 °C for the second.

Compared with `O=C(O)c1cn(C2CCC2)c2c(F)c(F)c(F)cc2c1=O`, `CCn1cc(C(=O)O)c(=O)c2cc(F)c(N3CC(C)C(CN)C3)c(F)c21` (stereo not drawn) is higher in melting point: 192 to 194 °C for the first, 222 to 224 °C for the second.

Compared with `C[C@H](CSC(=O)c1ccccc1)C(=O)N1C(c2cccs2)SC[C@H]1C(=O)O` (stereo partly drawn), `CNC(=O)[C@H](CCCCNC(=O)OCc1ccccc1)NC(=O)OC(C)(C)C` is lower in melting point: 136 to 137 °C for the first, 100 to 102 °C for the second.

Compared with `CC(C)c1cc(C=C2NC(=S)NC2=O)cc(C(C)C)c1O`, `Cc1cc(C(=O)N2CCC3(CC2)CSC2=C(O3)c3ccccc3C(=O)C2=O)nn1C` is lower in melting point: 225 to 230 °C for the first, 184 to 185 °C for the second.

Compared with `COC(OC)c1cccc(-c2ccc(C(=O)O)cc2)c1`, `Cc1c(NC(=O)c2ccc(CC(=O)CC(C)C)cc2)ccc2cc(CN3CCCC3)cnc12` is higher in melting point: 130 to 131 °C for the first, 153 °C for the second.

Compared with `CCCc1c(O[C@H]2CCC[C@H](Oc3ccc(C(=O)CCC(=O)O)cc3)C2)ccc(C(C)=O)c1O` (relative stereo), `C[C@H](NC(=O)c1ccc(C(N)=NO)cc1)C(=O)N1CCC(OCC(=O)OCOC(=O)C(C)(C)C)CC1` is higher in melting point: 90 to 94 °C for the first, 126 °C for the second.

First: CCc1cc(C)cc(CC)c1NC(=S)NC(C)(C)CC
Second: COC(=O)c1cccc(C)c1OC(=S)N(C)C
The melting point of the first is higher: 98 to 101 °C for the first, 94 to 96 °C for the second.

First: CC(C)(C)OC(=O)N1CCC2(CC1)CC(c1ccc(C(C)(C)C)cc1)=NO2
Second: CNC(=O)C1CCN(Cc2cnc3cc(NC(=O)c4ccc(-c5ccc(F)cc5)cc4)c(C)cc3c2)CC1
The melting point of the first is lower: 172 to 173 °C for the first, 257 °C for the second.

Compared with `COC1(C#Cc2ncn3c2CN(C)C(=O)c2c(Cl)cccc2-3)CCCC1`, `Cc1noc(NC(=O)N2CCN(c3nccc(-c4cccc(F)c4F)n3)CC2)c1C` is higher in melting point: 174 to 175 °C for the first, 193 to 194 °C for the second.

First: COc1ccc(C(=O)N2CCC(CCN3CCC(Nc4nc5ccccc5[nH]4)CC3)(c3ccccc3)C2)c(OC)c1OC (stereo not drawn)
Second: COc1cc(CN2CC[C@H](O)C2)ccc1-c1nc2c(N[C@H]3[C@@H](C(N)=O)[C@@H]4C=C[C@H]3C4)c(Cl)cnc2[nH]1
The melting point of the first is lower: 112 to 119 °C for the first, 205 to 208 °C for the second.

First: CC1=C(C(=O)OCOC(=O)C(C)(C)C)C(c2cccc([N+](=O)[O-])c2)C(C(=O)OCOC(=O)C(C)(C)C)=C(C)N1
Second: CC(=O)NCC1CN(c2ccc(N3CCS(=O)CC3)c(F)c2)C(=O)O1 (stereo not drawn)
The melting point of the first is lower: 124 to 125 °C for the first, 159 to 161 °C for the second.

Compared with `Ic1ccc2c(c1)Cc1cc(I)ccc1-2`, `CC1(C)CC(=O)NC2CCCCC2N1CCO` (stereo not drawn) is lower in melting point: 203 to 207 °C for the first, 154 to 156 °C for the second.
